Key:
[1] = molecular target: T1, androgen receptor (AR-LBD) (Rattus norvegicus, UniProt P15207); experiment: Evaluation of androgen receptor affinity (PolarScreen Androgen Receptor Competitor Assay Kit, Red; fluorescence polarization); settings: 22° C. for 5 hours, relative to binding rate of 1 μM DHT, read-out: AR affinity (pEC50) (converted)
T1 construct: 5 μL of 2×AR-LBD/Fluoromone AL Red Complex contained in the kit; purchased Invitrogen
T1 sequence (P15207 651-882 limits assumed): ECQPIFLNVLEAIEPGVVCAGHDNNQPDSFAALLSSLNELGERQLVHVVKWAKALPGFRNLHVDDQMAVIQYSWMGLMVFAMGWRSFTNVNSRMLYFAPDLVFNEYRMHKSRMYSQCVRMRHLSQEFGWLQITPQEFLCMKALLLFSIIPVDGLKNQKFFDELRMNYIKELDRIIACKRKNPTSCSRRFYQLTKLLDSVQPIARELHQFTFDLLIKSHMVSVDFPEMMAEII
Procedure, shortened: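 FP competition: compound + AR-LBD/Fluoromone AL Red tracer complex, 22° C, 5 h. Reference 1 μM DHT binding rate; pEC50 by 4-parameter fit.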

human androgen receptor = molecular target: T2, human androgen receptor (Homo sapiens, UniProt P10275); experiment: Reporter assay of an androgen receptor responsive sequence (luciferase, transiently transfected HEK293 cells); format: cell-based; settings: 24 hours incubation, relative to activity of 100 nM DHT, read-out: AR transcriptive activity (pEC50) (converted)
T2 construct: expressed in transfected cells; host or cells: HEK293
T2 sequence (P10275 1-920): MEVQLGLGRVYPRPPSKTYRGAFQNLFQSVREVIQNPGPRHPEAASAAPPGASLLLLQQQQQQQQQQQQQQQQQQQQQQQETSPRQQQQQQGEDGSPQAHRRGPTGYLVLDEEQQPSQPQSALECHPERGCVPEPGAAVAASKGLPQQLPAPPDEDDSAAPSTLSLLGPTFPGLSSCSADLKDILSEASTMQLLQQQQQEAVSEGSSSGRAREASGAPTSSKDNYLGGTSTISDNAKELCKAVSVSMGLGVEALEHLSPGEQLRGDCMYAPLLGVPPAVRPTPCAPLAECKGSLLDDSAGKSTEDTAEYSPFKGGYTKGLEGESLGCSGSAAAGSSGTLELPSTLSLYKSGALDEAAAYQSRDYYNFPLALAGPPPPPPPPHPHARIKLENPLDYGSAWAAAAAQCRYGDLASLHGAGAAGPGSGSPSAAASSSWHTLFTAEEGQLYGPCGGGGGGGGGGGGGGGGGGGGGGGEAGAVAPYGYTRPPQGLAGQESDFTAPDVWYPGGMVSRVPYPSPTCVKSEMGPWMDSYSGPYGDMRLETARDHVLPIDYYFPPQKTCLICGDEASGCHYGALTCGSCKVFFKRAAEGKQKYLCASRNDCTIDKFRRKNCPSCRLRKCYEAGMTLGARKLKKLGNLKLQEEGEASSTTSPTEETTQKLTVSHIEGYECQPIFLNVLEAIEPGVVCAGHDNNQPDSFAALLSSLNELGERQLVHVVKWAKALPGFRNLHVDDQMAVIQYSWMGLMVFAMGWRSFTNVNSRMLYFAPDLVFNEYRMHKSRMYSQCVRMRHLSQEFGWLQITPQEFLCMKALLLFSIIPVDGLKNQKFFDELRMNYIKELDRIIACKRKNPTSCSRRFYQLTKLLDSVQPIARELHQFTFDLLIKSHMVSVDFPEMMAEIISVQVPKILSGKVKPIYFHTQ
Procedure, shortened: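 Agonism scored as pEC50, fitted by 4-parameter curve against the response to 100 nM DHT, from dual-luciferase readout after 24 h compound treatment. Cells were HEK293 co-transfected (3 h) with human AR expression vector, androgen-responsive firefly reporter and Renilla control, in charcoal-stripped serum.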

Compound	EC50 [1] [nM]	EC50 (human androgen receptor) [nM]
CC(C)=CCN(c1ccc(C#N)cc1)c1nc(C(=O)NS(C)(=O)=O)c(C)s1 [Compound 439, 2-[4-cyano-N-(3-methylbut-2-enyl)anilino]-5-methyl-N-methylsulfonyl-thiazole-4-carboxamide]	50.1	126
Cc1sc(N(Cc2ccccc2)c2ccc(C#N)cc2F)nc1C(=O)NS(C)(=O)=O [Compound 487, 2-(N-benzyl-4-cyano-2-fluoro-anilino)-5-methyl-N-methylsulfonyl-thiazole-4-carboxamide]	79.4	158
Cc1sc(N(Cc2ccccc2)c2ccc(C#N)cc2)nc1C(=O)NS(=O)(=O)CCc1ccccc1 [Compound 391, 2-(N-benzyl-4-cyano-anilino)-5-methyl-N-(2-phenylethylsulfonyl)thiazole-4-carboxamide]	79.4	> 10000
Cc1sc(N(CCC2CCCCC2)c2ccc(C#N)cc2)nc1C(=O)NS(C)(=O)=O [Compound 407, 2-[4-cyano-N-(2-cyclohexylethyl)anilino]-5-methyl-N-methylsulfonyl-thiazole-4-carboxamide]	50.1	200
Cc1sc(N(CCc2ccccc2F)c2ccc(C#N)cc2)nc1C(=O)NS(C)(=O)=O [Compound 80, 2-[4-cyano-N-[2-(2-fluorophenyl)ethyl]anilino]-5-methyl-N-methylsulfonyl-thiazole-4-carboxamide]	316	> 10000
Cc1sc(N(Cc2ccc(Cl)cc2)c2ccc(C#N)cc2)nc1C(=O)NS(C)(=O)=O [Compound 23, 2-[N-[(4-chlorophenyl)methyl]-4-cyano-anilino]-5-methyl-N-methylsulfonyl-thiazole-4-carboxamide]	63.1	25.1
Cc1cc(CN(CCc2ccc(Cl)cc2)c2nc(C(=O)NS(C)(=O)=O)c(C)s2)no1 [Compound 508, 2-[2-(4-chlorophenyl)ethyl-[(5-methylisoxazol-3-yl)methyl]amino]-5-methyl-N-methylsulfonyl-thiazole-4-carboxamide]	316	5010
Cc1sc(N(Cc2ccccc2O)c2ccc(C#N)cc2)nc1C(=O)NS(C)(=O)=O [Compound 461, 2-[4-cyano-N-[(2-hydroxyphenyl)methyl]anilino]-5-methyl-N-methylsulfonyl-thiazole-4-carboxamide]	100	158
Cc1sc(N(CCC2CCCCC2)Cc2ccc(Cl)cc2)nc1C(=O)NS(=O)(=O)Cc1cccnc1 [Compound 325, 2-[(4-chlorophenyl)methyl-(2-cyclohexylethyl)amino]-5-methyl-N-(3-pyridylmethylsulfonyl)thiazole-4-carboxamide]	31.6	398
Cc1sc(N(Cc2ccccc2F)c2ccc(C#N)cc2)nc1C(=O)NS(C)(=O)=O [Compound 13, 2-[4-cyano-N-[(2-fluorophenyl)methyl]anilino]-5-methyl-N-methylsulfonyl-thiazole-4-carboxamide]	50.1	316

The remaining lines, values ahead:

EC50 [1] [nM]	EC50 (human androgen receptor) [nM]	Compound
63.1	3160	Cc1sc(N(CCc2ccc(Cl)cc2)Cc2ccc(Cl)cc2)nc1C(=O)NS(=O)(=O)C1CC1 [Compound 694, 2-[2-(4-chlorophenyl)ethyl-[(4-chlorophenyl)methyl]amino]-N-cyclopropylsulfonyl-5-methyl-thiazole-4-carboxamide]
158	> 10000	Cc1sc(N(Cc2ccc(OCc3ccncc3)cc2)c2ccc(C#N)cc2)nc1C(=O)NS(C)(=O)=O [Compound 571, 2-[4-cyano-N-[[4-(4-pyridylmethoxy)phenyl]methyl]anilino]-5-methyl-N-methylsulfonyl-thiazole-4-carboxamide]
100	794	Cc1sc(N(Cc2ccc(-c3ccc(F)cc3)nc2)c2ccc(C#N)cc2)nc1C(=O)NS(C)(=O)=O [Compound 592, 2-[4-cyano-N-[[6-(4-fluorophenyl)-3-pyridyl]methyl]anilino]-5-methyl-N-methylsulfonyl-thiazole-4-carboxamide]
15.8	79.4	CCc1oc(N(Cc2cc3ccccc3s2)c2ccc(C#N)cc2)nc1C(=O)NS(C)(=O)=O [Compound 626, 2-[N-(benzothiophen-2-ylmethyl)-4-cyano-anilino]-5-ethyl-N-methylsulfonyl-oxazole-4-carboxamide]
126	3980	Cc1oc(N(Cc2cccc(F)c2)c2ccc(C#N)cc2)nc1C(=O)NS(C)(=O)=O [Compound 612, 2-[4-cyano-N-[(3-fluorophenyl)methyl]anilino]-5-methyl-N-methylsulfonyl-oxazole-4-carboxamide]
31.6	50.1	COCCCS(=O)(=O)NC(=O)c1nc(N(Cc2ccc(Br)cc2)c2ccc(C#N)cc2)sc1C [Example 191, 2-[N-[(4-bromophenyl)methyl]-4-cyano-anilino]-N-(3-methoxypropylsulfonyl)-5-methyl-thiazole-4-carboxamide]
316	2510	CCc1oc(N(CC[C@@H]2CCCC[C@H]2O)c2ccc(C#N)cc2)nc1C(=O)NS(C)(=O)=O (racemic) [Compound 629, 2-[4-cyano-N-[2-[trans-2-hydroxycyclohexyl]ethyl]anilino]-5-ethyl-N-methylsulfonyl-oxazole-4-carboxamide]
50.1	63.1	CS(=O)(=O)NC(=O)c1nc(N(Cc2cccc(F)c2)c2ccc(C#N)cc2)sc1Br [Example 243, 5-bromo-2-[4-cyano-N-[(3-fluorophenyl)methyl]anilino]-N-methylsulfonyl-thiazole-4-carboxamide]
316	7940	COCCCS(=O)(=O)NC(=O)c1nc(N(CCc2ccc(C#N)cc2)Cc2ccc(C(F)(F)F)nc2)oc1C [Compound 559, 2-[2-(4-cyanophenyl)ethyl-[[6-(trifluoromethyl)-3-pyridyl]methyl]amino]-N-(3-methoxypropylsulfonyl)-5-methyl-oxazole-4-carboxamide]
501	> 10000	Cc1sc(N(CCC2CCCCC2)Cc2ccc(Cl)cc2)nc1C(=O)NS(=O)(=O)Cc1cccc(F)c1 [Compound 731, 2-[(4-chlorophenyl)methyl-(2-cyclohexylethyl)amino]-N-[(3-fluorophenyl)methylsulfonyl]-5-methyl-thiazole-4-carboxamide]
398	1580	CCc1oc(N(Cc2ccc(Br)cn2)c2ccc(C#N)cc2)nc1C(=O)NS(C)(=O)=O [Compound 636, 2-[N-[(5-bromo-2-pyridyl)methyl]-4-cyano-anilino]-5-ethyl-N-methylsulfonyl-oxazole-4-carboxamide]
50.1	1580	Cc1sc(N(CCc2cccc(Cl)c2)Cc2ccccc2)nc1C(=O)NS(C)(=O)=O [Compound 671, 2-[benzyl-[2-(3-chlorophenyl)ethyl]amino]-5-methyl-N-methylsulfonyl-thiazole-4-carboxamide]
39.8	631	Cc1sc(N(CCC2CCCCC2)Cc2ccc(Cl)cc2)nc1C(=O)NS(C)(=O)=O [Compound 728, 2-[(4-chlorophenyl)methyl-(2-cyclohexylethyl)amino]-5-methyl-N-methylsulfonyl-thiazole-4-carboxamide]
